What is called IC50 is the concentration that gives 50% inhibition.

31 compounds from patent US11524968B2, “Heterocyclic compound as a protein kinase inhibitor” (HK inno.N Corporation, priority 2017, dated 2022) can be followed below.

This experiment deals with JAK1 (Homo sapiens (Human), UniProt P23458). The experiment can be described thus: Analysis of JAK1 activity inhibition ability (ADP-Glo Kinase Assay). Format: biochemical. As to conditions: JAK1 enzyme, ADP-Glo luminescence, ATP 250 uM, IRS-itide substrate, 30° C. 40 minutes; read-out: IC50. How it is done: Test Example 1: Analysis of JAK1 Activity Inhibition Ability of Compound of Formula 1 (ADP-Glo™ Kinase Assay)
A JAK inhibition ability of a compound according to the present invention was identified as follows.
A control material and a test material were prepared for each concentration, in such a way that they were diluted by means of DMSO. At the same time, ATP (250 uM) and JAK substrate (JAK1, IRS-itide 40 ng/mL) were prepared, in such a way that they were diluted by means of kinase buffer (40 mM Tris-HCl pH 7.5, 20 mM MgCl2, 0.5 mg/mL BSA, 50 uM DTT).
A test drug for each concentration, substrate, ATP and JAK enzyme were mixed in an eppendorf tube, and reacted in a 30° C. incubator for 40 minutes.
ADP-Glo™ reagent contained in ADP-Glo™ Kinase Enzyme System (Promega, USA, V9571) was added into each eppendorf tube, and reacted in a 30° C. incubator for 40 minutes. A kinase detection reagent contained in ADP-Go™ Kinase Enzyme System was inserted into the eppendorf tube, then an integration time was set to 1 second by using Wallac Victor 2™, then luminescence was measured, and then JAKs phosphorylation inhibition ability of the test material was analyzed. The concentration of the compound, which causes 50% of the JAK enzyme activity inhibition in comparison With the control group, was determined as IC50 (nM) of an inhibitor, wherein the results thereof are shown in a following table 1.

Chain of JAK1 (P23458 whole entry): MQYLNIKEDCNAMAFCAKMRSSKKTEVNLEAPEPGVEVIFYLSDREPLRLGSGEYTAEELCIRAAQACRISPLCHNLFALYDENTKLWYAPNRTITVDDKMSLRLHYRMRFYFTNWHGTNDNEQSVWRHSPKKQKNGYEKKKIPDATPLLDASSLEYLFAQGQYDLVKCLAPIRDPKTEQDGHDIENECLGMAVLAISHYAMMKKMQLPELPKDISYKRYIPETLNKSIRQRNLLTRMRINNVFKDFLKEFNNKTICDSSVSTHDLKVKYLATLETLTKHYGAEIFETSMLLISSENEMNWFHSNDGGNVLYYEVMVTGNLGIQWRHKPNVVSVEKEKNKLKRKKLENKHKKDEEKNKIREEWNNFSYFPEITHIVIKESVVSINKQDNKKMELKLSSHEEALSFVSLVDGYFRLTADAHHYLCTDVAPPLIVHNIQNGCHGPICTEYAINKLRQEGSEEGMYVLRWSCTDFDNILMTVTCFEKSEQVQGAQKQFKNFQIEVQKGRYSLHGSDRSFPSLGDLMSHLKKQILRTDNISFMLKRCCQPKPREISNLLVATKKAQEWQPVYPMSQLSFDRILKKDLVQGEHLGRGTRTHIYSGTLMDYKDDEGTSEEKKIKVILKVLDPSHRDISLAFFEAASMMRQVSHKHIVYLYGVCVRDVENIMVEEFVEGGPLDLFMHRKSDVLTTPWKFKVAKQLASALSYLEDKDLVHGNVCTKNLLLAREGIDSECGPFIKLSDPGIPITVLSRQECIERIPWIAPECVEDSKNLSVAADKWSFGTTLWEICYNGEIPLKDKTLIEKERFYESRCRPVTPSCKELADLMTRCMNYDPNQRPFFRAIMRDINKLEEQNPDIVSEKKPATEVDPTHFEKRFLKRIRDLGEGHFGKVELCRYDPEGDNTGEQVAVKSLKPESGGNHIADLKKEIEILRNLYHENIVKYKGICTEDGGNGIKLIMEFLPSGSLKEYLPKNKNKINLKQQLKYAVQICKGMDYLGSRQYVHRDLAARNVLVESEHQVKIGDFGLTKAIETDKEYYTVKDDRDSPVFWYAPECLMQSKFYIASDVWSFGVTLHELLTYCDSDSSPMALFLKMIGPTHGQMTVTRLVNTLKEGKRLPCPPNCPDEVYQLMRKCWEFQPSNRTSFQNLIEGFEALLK

Regarding `O=C(Nc1cc(-c2ccc(NS(=O)(=O)CC3CC3)cc2)c2cc[nH]c2n1)C1CC1` [Example 46, N-(4-(4-((cyclopropylmethyl)sulfonamido)phenyl)-1H-pyrrolo[2,3-b]pyridin-6-yl)cyclopropanecarboxamide], the IC50 is less than 20 nM.

On to `O=C(Nc1cc(-c2ccc(NS(=O)(=O)CC3CCCCC3)cc2)c2cc[nH]c2n1)C1CC1` [Example 47, N-(4-(4-((cyclohexylmethyl)sulfonamido)phenyl)-1H-pyrrolo[2,3-b]pyridin-6-yl)cyclopropanecarboxamide], for which the 50% inhibitory concentration (IC50) was less than 20 nM.

`C=CCS(=O)(=O)Nc1ccc(-c2cc(NC(=O)C3CC3)nc3[nH]ccc23)cc1` [Example 48, N-(4-(4-(allylsulfonamido)phenyl)-1H-pyrrolo[2,3-b]pyridin-6-yl)cyclopropanecarboxamide]: the half-maximal inhibitory concentration (IC50) is less than 20 nM.

For the compound `O=C(Nc1cc(-c2ccc(NS(=O)(=O)CF)cc2)c2cc[nH]c2n1)C1CC1` [Example 49, N-(4-(4-((fluoromethyl)sulfonamido)phenyl)-1H-pyrrolo[2,3-b]pyridin-6-yl)cyclopropanecarboxamide], the 50% inhibitory concentration (IC50) lay within 20 to 200 nM.

Take `O=C(Nc1cc(-c2ccc(NS(=O)(=O)C(F)F)cc2)c2cc[nH]c2n1)C1CC1` [Example 50, N-(4-(4-((difluoromethyl)sulfonamido)phenyl)-1H-pyrrolo[2,3-b]pyridin-6-yl)cyclopropanecarboxamide]: the IC50 lay in the range of 20 to 200 nM.

With `O=C(Nc1cc(-c2ccc(NS(=O)(=O)CC(F)F)cc2)c2cc[nH]c2n1)C1CC1` [Example 51, N-(4-(4-((2,2-difluoroethyl)sulfonamido)phenyl)-1H-pyrrolo[2,3-b]pyridin-6-yl)cyclopropanecarboxamide], the half-inhibitory concentration (IC50) was in the range of 20 to 200 nM.

As to `N#CCCCS(=O)(=O)Nc1ccc(-c2cc(NC(=O)C3CC3)nc3[nH]ccc23)cc1` [Example 52, N-(4-(4-((3-cyanopropyl)sulfonamido)phenyl)-1H-pyrrolo[2,3-b]pyridin-6-yl)cyclopropanecarboxamide], the IC50 was less than 20 nM.

Consider `CCOCCS(=O)(=O)Nc1ccc(-c2cc(NC(=O)C3CC3)nc3[nH]ccc23)cc1` [Example 53, N-(4-(4-((2-ethoxyethyl)sulfonamido)phenyl)-1H-pyrrolo[2,3-b]pyridin-6-yl)cyclopropanecarboxamide], for which the IC50 lay within 20 to 200 nM.

Turning to `O=C(Nc1cc(-c2ccc(NS(=O)(=O)CC3CCOC3)cc2)c2cc[nH]c2n1)C1CC1` (stereo not shown) [Example 54, N-(4-(4-(((tetrahydrofuran-3-yl)methyl)sulfonamido)phenyl)-1H-pyrrolo[2,3-b]pyridin-6-yl)cyclopropanecarboxamide], the 50% inhibitory concentration (IC50) is less than 20 nM.

Consider `O=C(Nc1cc(-c2ccc(NS(=O)(=O)CC3CCOCC3)cc2)c2cc[nH]c2n1)C1CC1` [Example 55, N-(4-(4-(((tetrahydro-2H-pyran-4-yl)methyl)sulfonamido)phenyl)-1H-pyrrolo[2,3-b]pyridin-6-yl)cyclopropanecarboxamide], for which the IC50 is less than 20 nM.

On to `CS(=O)(=O)CCS(=O)(=O)Nc1ccc(-c2cc(NC(=O)C3CC3)nc3[nH]ccc23)cc1` [Example 56, N-(4-(4-((2-(methylsulfonyl)ethyl)sulfonamido)phenyl)-1H-pyrrolo[2,3-b]pyridin-6-yl)cyclopropanecarboxamide], for which the 50% inhibitory concentration (IC50) is less than 20 nM.

As for `O=C(Nc1cc(-c2ccc(NS(=O)(=O)C3CC3)cc2)c2cc[nH]c2n1)C1CC1` [Example 57, N-(4-(4-(cyclopropanesulfonamido)phenyl)-1H-pyrrolo[2,3-b]pyridin-6-yl)cyclopropanecarboxamide], the IC50 is less than 20 nM.

As to `O=C(Nc1cc(-c2ccc(NS(=O)(=O)C3CCC3)cc2)c2cc[nH]c2n1)C1CC1` [Example 58, N-(4-(4-(cyclobutanesulfonamido)phenyl)-1H-pyrrolo[2,3-b]pyridin-6-yl)cyclopropanecarboxamide], the 50% inhibitory concentration (IC50) was less than 20 nM.

Take `CCS(=O)(=O)Nc1ccc(-c2cc(NC(=O)C3CC3)nc3[nH]ccc23)cc1C#N` [Example 59, N-(4-(3-cyano-4-(ethylsulfonamido)phenyl)-1H-pyrrolo[2,3-b]pyridin-6-yl)cyclopropanecarboxamide]: the IC50 was greater than 200 nM.

Take `CCS(=O)(=O)Nc1ccc(-c2cc(NC(=O)C3CC3)nc3c2ccn3C)cc1F` [Example 60, N-(4-(4-(ethylsulfonamido)-3-fluorophenyl)-1-methyl-1H-pyrrolo[2,3-b]pyridin-6-yl)cyclopropanecarboxamide]: the concentration for half-maximal inhibition (IC50) was greater than 200 nM.

For `CCCn1ccc2c(-c3ccc(NS(=O)(=O)CC)c(F)c3)cc(NC(=O)C3CC3)nc21` [Example 61, N-(4-(4-(ethylsulfonamido)-3-fluorophenyl)-1-propyl-1H-pyrrolo[2,3-b]pyridin-6-yl)cyclopropanecarboxamide], the IC50 was greater than 200 nM.

Take `CCS(=O)(=O)Nc1ccc(-c2cc(NC(=O)C3CC3)nc3c2ccn3CC#N)cc1F` [Example 62, N-(1-(cyanomethyl)-4-(4-(ethylsulfonamido)-3-fluorophenyl)-1H-pyrrolo[2,3-b]pyridin-6-yl)cyclopropanecarboxamide]: the IC50 was greater than 200 nM.

Turning to `CCCS(=O)(=O)Nc1ccc(-c2cc(NC(=O)C3CC3)nc3[nH]ccc23)cc1Cl` [Example 63, N-(4-(3-chloro-4-(propylsulfonamido)phenyl)-1H-pyrrolo[2,3-b]pyridin-6-yl)cyclopropanecarboxamide], the IC50 lay within 20 to 200 nM.

For the compound `CCS(=O)(=O)Nc1ccc(-c2cc(NC(=O)C3CC3)nc3[nH]ccc23)cc1C` [Example 64, N-(4-(4-(ethylsulfonamido)-3-methylphenyl)-1H-pyrrolo[2,3-b]pyridin-6-yl)cyclopropanecarboxamide], the concentration for half-maximal inhibition (IC50) was less than 20 nM.

Take `CCCS(=O)(=O)Nc1ccc(-c2cc(NC(=O)C3CC3)nc3[nH]ccc23)cc1C` [Example 65, N-(4-(3-methyl-4-(propylsulfonamido)phenyl)-1H-pyrrolo[2,3-b]pyridin-6-yl)cyclopropanecarboxamide]: the concentration for half-maximal inhibition (IC50) was less than 20 nM.

Turning to `CCCS(=O)(=O)Nc1ccc(-c2cc(NC(=O)C3CC3)nc3[nH]ccc23)cc1F` [Example 66, N-(4-(3-fluoro-4-(propylsulfonamido)phenyl)-1H-pyrrolo[2,3-b]pyridin-6-yl)cyclopropanecarboxamide], the IC50 was less than 20 nM.

For `CCCCS(=O)(=O)Nc1ccc(-c2cc(NC(=O)C3CC3)nc3[nH]ccc23)cc1F` [Example 67, N-(4-(4-(butylsulfonamido)-3-fluorophenyl)-1H-pyrrolo[2,3-b]pyridin-6-yl)cyclopropanecarboxamide], the 50% inhibitory concentration (IC50) was less than 20 nM.

`O=C(Nc1cc(-c2ccc(NS(=O)(=O)C3CCCCC3)c(F)c2)c2cc[nH]c2n1)C1CC1` [Example 68, N-(4-(4-(cyclohexanesulfonamido)-3-fluorophenyl)-1H-pyrrolo[2,3-b]pyridin-6-yl)cyclopropanecarboxamide]: the IC50 is less than 20 nM.

Consider `O=C(Nc1cc(-c2ccc(NS(=O)(=O)C3CC3)c(F)c2)c2cc[nH]c2n1)C1CC1` [Example 69, N-(4-(4-(cyclopropanesulfonamido)-3-fluorophenyl)-1H-pyrrolo[2,3-b]pyridin-6-yl)cyclopropanecarboxamide], for which the half-maximal inhibitory concentration (IC50) is less than 20 nM.

For the compound `O=C(Nc1cc(-c2ccc(NS(=O)(=O)CC3CCCCC3)c(F)c2)c2cc[nH]c2n1)C1CC1` [Example 70, N-(4-(4-((cyclohexylmethyl)sulfonamido)-3-fluorophenyl)-1H-pyrrolo[2,3-b]pyridin-6-yl)cyclopropanecarboxamide], the 50% inhibitory concentration (IC50) lay in the range of 20 to 200 nM.

Regarding `C=CCS(=O)(=O)Nc1ccc(-c2cc(NC(=O)C3CC3)nc3[nH]ccc23)cc1F` [Example 71, N-(4-(4-(allylsulfonamido)-3-fluorophenyl)-1H-pyrrolo[2,3-b]pyridin-6-yl)cyclopropanecarboxamide], the 50% inhibitory concentration (IC50) is less than 20 nM.

For the compound `O=C(Nc1cc(-c2ccc(NS(=O)(=O)CC3CCOC3)c(F)c2)c2cc[nH]c2n1)C1CC1` (stereo not shown) [Example 72, N-(4-(3-fluoro-4-(((tetrahydrofuran-3-yl)methyl)sulfonamido)phenyl)-1H-pyrrolo[2,3-b]pyridin-6-yl)cyclopropanecarboxamide], the IC50 is less than 20 nM.

`O=C(Nc1cc(-c2ccc(NS(=O)(=O)CC3CCOCC3)c(F)c2)c2cc[nH]c2n1)C1CC1` [Example 73, N-(4-(3-fluoro-4-(((tetrahydro-2H-pyran-4-yl)methyl)sulfonamido)phenyl)-1H-pyrrolo[2,3-b]pyridin-6-yl)cyclopropanecarboxamide]: the IC50 is less than 20 nM.

Take `CCS(=O)(=O)Nc1ccc(-c2cc(NC(=O)C3CC3)nc3[nH]c(C)cc23)cc1` [Example 74, N-(4-(4-(ethylsulfonamido)phenyl)-2-methyl-1H-pyrrolo[2,3-b]pyridin-6-yl)cyclopropanecarboxamide]: the IC50 is greater than 200 nM.

With `CC(C)CS(=O)(=O)Nc1ccc(-c2cc(NC(=O)C3CC3)nc3[nH]ccc23)cc1F` [Example 75, N-(4-(3-fluoro-4-((2-methylpropyl)sulfonamido)phenyl)-1H-pyrrolo[2,3-b]pyridin-6-yl)cyclopropanecarboxamide], the IC50 is less than 20 nM.

Take `O=C(Nc1cc(-c2ccc(NS(=O)(=O)CCCF)c(F)c2)c2cc[nH]c2n1)C1CC1` [Example 76, N-(4-(3-fluoro-4-((3-fluoropropyl)sulfonamido)phenyl)-1H-pyrrolo[2,3-b]pyridin-6-yl)cyclopropanecarboxamide]: the concentration for half-maximal inhibition (IC50) is less than 20 nM.
